System: rAAV1 CMV mSeap vector
Assay: rAAV readministration in TA: mSeap expression and vector copy number
Assay type: in vivo, C57BL/6 mice
Procedure: MnTBAP (Calbiochem, San Diego, USA or Enzo Life Sciences, Farmingdale, USA) is dissolved in 75 mM NaOH to constitute a 20 mM stock solution. MnTBAP is dissolved in the complete medium, used for in vitro treatment, containing RPMI-1640 supplemented with 10% heat-inactivated fetal calf serum, 100 U/ml penicillin/streptomycin, 2 mM glutamax and 50 µM β-mercaptoethanol β-ME). Hypertonic medium, used to block clathrin dependent endocytosis, is complete medium supplemented with 0.45 M sucrose. For in vivo treatment, the stock solution is diluted with PBS and administered at 80 mg/kg intraperitoneally daily during five days. Control animals are injected with equivalent volume of PBS.
Readministration protocol: After the initial IV injection of rAAV2/1 CMV SGCA HY vector at D0 (two hours post first IP injection of MnTBAP) the second rAAV1 injection (2.10^9 vg of rAAV2/1 CMV mSeAP) is performed 28 days later in the left TA muscle. Mice are followed up to 93 days after readministration to analyze capsid-specific humoral response and to measure circulating mSeAP from serum samples. Mice are killed 93 days after second injection of vector. […]
Genomic DNA is extracted from frozen muscles using MagNA Pure 96 Instrument (Roche). […] Results are calculated from a standard curve based on dilutions of 2 plasmids containing either the Titin or CMV sequences. […]
Determination of alkaline phosphatase concentration in immunized mice sera is performed by chemoluminescence analyzis (C. Riviere et al., Gene therapy 13, 1300. 2006). Blood samples are centrifuged for 10 min at 8000 rpm to collect sera, endogenous alkaline phosphatase is heat inactivated for 5 min at 65°C and the heat-resistant mSeAP is measured by addition of the reaction buffer and CSPD® chemiluminescent substrate, according to the manufacturer's instructions (Tropix, Applied Biosystems, Forster City, USA). Chemiluminescence is quantified using a luminometer, Enspire (Perkin Elmer, Massachusetts, USA). Expression levels are expressed as ng of mSeAP per ml of serum using a standard curve of purified human placental alkaline phosphatase.

## O=C(O)c1ccc(-c2c3nc(c(-c4ccc(C(=O)O)cc4)c4ccc([n-]4)c(-c4ccc(C(=O)O)cc4)c4nc(c(-c5ccc(C(=O)O)cc5)c5ccc2[n-]5)C=C4)C=C3)cc1.[Mn+3] [MnTBAP, manganese [III] tetrakis (4-benzoic acid) porphyrin]
93 days after vector readministration, vs control mice
  level of mSeap in the serum: significantly increased
Injected TA harvested 93 days after vector readministration
  histochemical detection of mSeap in muscle: detection of the reporter gene mSeap
Injected TA, CMV PCR normalized to titin, vs control mice
  normalized copy number of the readministered rAAV: significantly increased
